Measured values taken from the supplement of paper PMC6045584.
± gives the standard deviation of the averaged measurements.

Experiments:
[1] = compound: CCn1c(C(=O)N(C2CC2)C2CC2)cc2c3c(ncn3C)c(Nc3cc(C)n(C)n3)nc21; assay: surviving fraction relative to DMSO-only wells; higher = less growth inhibition; settings: exposure time: 5 days
Summary of the method: (§1)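 Viability was determined by CellTiter-Glo luminescence, expressed as surviving fraction normalised to the median of DMSO-only wells. The cells were log-phase tumour cell lines seeded at 250–500 per well in 384-well plates and, after 24 hours, exposed continuously for five days to inhibitors at 0.5, 1, 5, 10, 50, 100, 500 and 1000 nM. Three screens per line were run, keeping only lines with replicate Pearson r >0.7 and median Z' >0.3.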

FORETINIB = compound: COc1cc2c(Oc3ccc(NC(=O)C4(C(=O)Nc5ccc(F)cc5)CC4)cc3F)ccnc2cc1OCCCN1CCOCC1 [FORETINIB]; assay: as above; settings: exposure time: 5 days
Summary of the method: as §1

Work on MDAMB436 BREAST yielded a surviving fraction ([1]; 0.5 nM) of 0.857 ± 0.024, a surviving fraction ([1]; 1 nM) of 0.807 ± 0.1 and a surviving fraction ([1]; 5 nM) of 0.8337 ± 0.0019. It also gave a surviving fraction ([1]; 10 nM) of 0.877 ± 0.086, a surviving fraction ([1]; 50 nM) of 0.926 ± 0.029 and a surviving fraction ([1]; 100 nM) of 0.946 ± 0.12. The surviving fraction ([1]; 500 nM) was 0.983 ± 0.13, the surviving fraction ([1]; 1000 nM) was 0.941 ± 0.033 and the surviving fraction (FORETINIB; 0.5 nM) was 0.976 ± 0.091. The surviving fraction (FORETINIB; 1 nM) was 0.923 ± 0.086, the surviving fraction (FORETINIB; 5 nM) was 0.982 ± 0.043 and the surviving fraction (FORETINIB; 10 nM) was 1.05 ± 0.14. The surviving fraction (FORETINIB; 50 nM) was 1.02 ± 0.043, the surviving fraction (FORETINIB; 100 nM) was 0.91 ± 0.2 and the surviving fraction (FORETINIB; 500 nM) was 0.856 ± 0.16. For the same test system, the surviving fraction (FORETINIB; 1000 nM) was 0.687 ± 0.047.

MDAMB453 BREAST gave a surviving fraction ([1]; 0.5 nM) of 1.02 ± 0.033, a surviving fraction ([1]; 1 nM) of 0.992 ± 0.039 and a surviving fraction ([1]; 5 nM) of 0.983 ± 0.02. It also gave a surviving fraction ([1]; 10 nM) of 0.986 ± 0.028, a surviving fraction ([1]; 50 nM) of 1.048 ± 0.0087 and a surviving fraction ([1]; 100 nM) of 1.05 ± 0.033. It also gave a surviving fraction ([1]; 500 nM) of 1.04 ± 0.015, a surviving fraction ([1]; 1000 nM) of 1.02 ± 0.028 and a surviving fraction (FORETINIB; 0.5 nM) of 1.1 ± 0.067. It also gave a surviving fraction (FORETINIB; 1 nM) of 1.09 ± 0.062, a surviving fraction (FORETINIB; 5 nM) of 1.12 ± 0.058 and a surviving fraction (FORETINIB; 10 nM) of 1.13 ± 0.087. For the same test system, the surviving fraction (FORETINIB; 50 nM) was 1.12 ± 0.025, the surviving fraction (FORETINIB; 100 nM) was 1.08 ± 0.04 and the surviving fraction (FORETINIB; 500 nM) was 0.952 ± 0.041. For the same test system, the surviving fraction (FORETINIB; 1000 nM) was 0.763 ± 0.035.

With MDAMB468 BREAST the surviving fraction ([1]; 0.5 nM) was 0.984 ± 0.047, the surviving fraction ([1]; 1 nM) was 1.02 ± 0.059 and the surviving fraction ([1]; 5 nM) was 1.05 ± 0.067. For the same test system, the surviving fraction ([1]; 10 nM) was 1.06 ± 0.09, the surviving fraction ([1]; 50 nM) was 1.05 ± 0.039 and the surviving fraction ([1]; 100 nM) was 1.05 ± 0.074. For the same test system, the surviving fraction ([1]; 500 nM) was 0.985 ± 0.046, the surviving fraction ([1]; 1000 nM) was 1.03 ± 0.095 and the surviving fraction (FORETINIB; 0.5 nM) was 1.02 ± 0.03. It also gave a surviving fraction (FORETINIB; 1 nM) of 1.05 ± 0.059, a surviving fraction (FORETINIB; 5 nM) of 1.12 ± 0.077 and a surviving fraction (FORETINIB; 10 nM) of 1.09 ± 0.03. The surviving fraction (FORETINIB; 50 nM) was 1.15 ± 0.086, the surviving fraction (FORETINIB; 100 nM) was 1.06 ± 0.076 and the surviving fraction (FORETINIB; 500 nM) was 0.928 ± 0.082. For the same test system, the surviving fraction (FORETINIB; 1000 nM) was 0.356 ± 0.014.

Work on MFM223 BREAST yielded a surviving fraction ([1]; 0.5 nM) of 1.07 ± 0.076, a surviving fraction ([1]; 1 nM) of 1.02 ± 0.056 and a surviving fraction ([1]; 5 nM) of 1.03 ± 0.047. The surviving fraction ([1]; 10 nM) was 1.04 ± 0.053, the surviving fraction ([1]; 50 nM) was 1.1 ± 0.087 and the surviving fraction ([1]; 100 nM) was 1.18 ± 0.075. The surviving fraction ([1]; 500 nM) was 1.17 ± 0.092, the surviving fraction ([1]; 1000 nM) was 1.15 ± 0.089 and the surviving fraction (FORETINIB; 0.5 nM) was 1.17 ± 0.043. It also gave a surviving fraction (FORETINIB; 1 nM) of 1.09 ± 0.041, a surviving fraction (FORETINIB; 5 nM) of 1.18 ± 0.062 and a surviving fraction (FORETINIB; 10 nM) of 1.22 ± 0.034. For the same test system, the surviving fraction (FORETINIB; 50 nM) was 1.133 ± 0.011, the surviving fraction (FORETINIB; 100 nM) was 0.94 ± 0.023 and the surviving fraction (FORETINIB; 500 nM) was 0.417 ± 0.17. It also gave a surviving fraction (FORETINIB; 1000 nM) of 0.271 ± 0.13.

Test System MG63 BONE has a surviving fraction ([1]; 0.5 nM) of 0.9877 ± 0.0096, a surviving fraction ([1]; 1 nM) of 0.944 ± 0.016 and a surviving fraction ([1]; 5 nM) of 0.992 ± 0.02. It also gave a surviving fraction ([1]; 10 nM) of 0.981 ± 0.031, a surviving fraction ([1]; 50 nM) of 1.01 ± 0.011 and a surviving fraction ([1]; 100 nM) of 0.98 ± 0.015. It also gave a surviving fraction ([1]; 500 nM) of 0.928 ± 0.013, a surviving fraction ([1]; 1000 nM) of 0.891 ± 0.021 and a surviving fraction (FORETINIB; 0.5 nM) of 1.05 ± 0.012. For the same test system, the surviving fraction (FORETINIB; 1 nM) was 1.07 ± 0.048, the surviving fraction (FORETINIB; 5 nM) was 1.09 ± 0.043 and the surviving fraction (FORETINIB; 10 nM) was 1.11 ± 0.05. For the same test system, the surviving fraction (FORETINIB; 50 nM) was 0.901 ± 0.037, the surviving fraction (FORETINIB; 100 nM) was 0.817 ± 0.026 and the surviving fraction (FORETINIB; 500 nM) was 0.567 ± 0.015. The surviving fraction (FORETINIB; 1000 nM) was 0.322 ± 0.02.

Test System MHM BONE has a surviving fraction ([1]; 0.5 nM) of 0.979 ± 0.035, a surviving fraction ([1]; 1 nM) of 0.964 ± 0.015 and a surviving fraction ([1]; 5 nM) of 1 ± 0.022. The surviving fraction ([1]; 10 nM) was 0.995 ± 0.013, the surviving fraction ([1]; 50 nM) was 1 ± 0.019 and the surviving fraction ([1]; 100 nM) was 0.999 ± 0.0044. For the same test system, the surviving fraction ([1]; 500 nM) was 0.976 ± 0.024, the surviving fraction ([1]; 1000 nM) was 0.949 ± 0.022 and the surviving fraction (FORETINIB; 0.5 nM) was 1.04 ± 0.015. The surviving fraction (FORETINIB; 1 nM) was 1.01 ± 0.012, the surviving fraction (FORETINIB; 5 nM) was 1.05 ± 0.015 and the surviving fraction (FORETINIB; 10 nM) was 1.08 ± 0.026. It also gave a surviving fraction (FORETINIB; 50 nM) of 1.03 ± 0.017, a surviving fraction (FORETINIB; 100 nM) of 0.973 ± 0.0092 and a surviving fraction (FORETINIB; 500 nM) of 0.859 ± 0.026. The surviving fraction (FORETINIB; 1000 nM) was 0.8 ± 0.016.

With NCIH441 LUNG the surviving fraction ([1]; 0.5 nM) was 0.92 ± 0.068, the surviving fraction ([1]; 1 nM) was 0.97 ± 0.033 and the surviving fraction ([1]; 5 nM) was 1.03 ± 0.033. It also gave a surviving fraction ([1]; 10 nM) of 1.01 ± 0.13, a surviving fraction ([1]; 50 nM) of 0.952 ± 0.063 and a surviving fraction ([1]; 100 nM) of 1.04 ± 0.037. For the same test system, the surviving fraction ([1]; 500 nM) was 1.06 ± 0.068, the surviving fraction ([1]; 1000 nM) was 1.04 ± 0.017 and the surviving fraction (FORETINIB; 0.5 nM) was 1.11 ± 0.021. It also gave a surviving fraction (FORETINIB; 1 nM) of 1.09 ± 0.063, a surviving fraction (FORETINIB; 5 nM) of 1.1 ± 0.038 and a surviving fraction (FORETINIB; 10 nM) of 1 ± 0.079. It also gave a surviving fraction (FORETINIB; 50 nM) of 0.983 ± 0.026, a surviving fraction (FORETINIB; 100 nM) of 0.932 ± 0.065 and a surviving fraction (FORETINIB; 500 nM) of 0.807 ± 0.04. For the same test system, the surviving fraction (FORETINIB; 1000 nM) was 0.655 ± 0.066.

Test System NOS1 BONE has a surviving fraction ([1]; 0.5 nM) of 1.09 ± 0.11, a surviving fraction ([1]; 1 nM) of 1.13 ± 0.12 and a surviving fraction ([1]; 5 nM) of 1.14 ± 0.035. It also gave a surviving fraction ([1]; 10 nM) of 1.04 ± 0.1, a surviving fraction ([1]; 50 nM) of 1.12 ± 0.15 and a surviving fraction ([1]; 100 nM) of 1.13 ± 0.088. It also gave a surviving fraction ([1]; 500 nM) of 1.06 ± 0.2, a surviving fraction ([1]; 1000 nM) of 0.884 ± 0.16 and a surviving fraction (FORETINIB; 0.5 nM) of 1.12 ± 0.43. The surviving fraction (FORETINIB; 1 nM) was 1.04 ± 0.052, the surviving fraction (FORETINIB; 5 nM) was 1 ± 0.063 and the surviving fraction (FORETINIB; 10 nM) was 0.98 ± 0.099. For the same test system, the surviving fraction (FORETINIB; 50 nM) was 0.79 ± 0.058, the surviving fraction (FORETINIB; 100 nM) was 0.749 ± 0.028 and the surviving fraction (FORETINIB; 500 nM) was 0.28 ± 0.039. The surviving fraction (FORETINIB; 1000 nM) was 0.114 ± 0.0078.

NY BONE showed a surviving fraction ([1]; 0.5 nM) of 0.934 ± 0.0062, a surviving fraction ([1]; 1 nM) of 0.932 ± 0.038 and a surviving fraction ([1]; 5 nM) of 1.002 ± 0.01. The surviving fraction ([1]; 10 nM) was 0.975 ± 0.026, the surviving fraction ([1]; 50 nM) was 1.02 ± 0.022 and the surviving fraction ([1]; 100 nM) was 0.99 ± 0.013. It also gave a surviving fraction ([1]; 500 nM) of 0.922 ± 0.025, a surviving fraction ([1]; 1000 nM) of 0.915 ± 0.018 and a surviving fraction (FORETINIB; 0.5 nM) of 1.05 ± 0.035. It also gave a surviving fraction (FORETINIB; 1 nM) of 1.03 ± 0.034, a surviving fraction (FORETINIB; 5 nM) of 1.07 ± 0.033 and a surviving fraction (FORETINIB; 10 nM) of 1.016 ± 0.0061. For the same test system, the surviving fraction (FORETINIB; 50 nM) was 0.91 ± 0.019, the surviving fraction (FORETINIB; 100 nM) was 0.93 ± 0.045 and the surviving fraction (FORETINIB; 500 nM) was 0.558 ± 0.047. It also gave a surviving fraction (FORETINIB; 1000 nM) of 0.587 ± 0.031.
